Legend:
[1] = target: T1, BTK (Homo sapiens, UniProt Q06187); assay: BTK inhibitory activity, Z-Lyte Kinase Assay Kit; type: biochemical; settings: 60 minutes at room temperature, BTK enzyme (Invitrogen PV3190)
T1 construct: purchased Invitrogen PV3190
Procedure: (§1) Evaluation of JAK3 and BTK Inhibitory Activity
(§2) The compounds prepared in Examples 1 to 20 were tested for JAK3 and BTK inhibitory activity. Kinase inhibitory activity was measured by using Z-Lyte Kinase Assay Kit (Invitrogen), and JAK3 and BTK enzymes were purchased from Invitrogen (PV3855, PV3190).
(§3) Specifically, the compounds of Examples 1 to 20 were diluted with a 4% aqueous solution of DMSO to obtain solutions with concentrations in the range of 1˜0.0001 μM. Each kinase was diluted to 1˜10 ng/assay, and ATP was diluted to form a kinase buffer (50 mM HEPES, pH 7.4; 10 mM MgCl2; 1 mM EGTA; 0.01% BRIJ-35) by calculating an approximate Kd value. The assays were performed in 384-well polystyrene flat-bottomed plates. 5 μL of the diluted solution of the compound, peptide substrate having a suitable concentration, 10 μL of mixed kinase solution and 5 μL of ATP solution having a concentration of 5 to 300 μM were added to the sample, and allowed to react in a mixer for 60 minutes at room temperature. After 60 minutes, 10 μL of fluorescent labeling reagents was added to each mixture so as to allow fluorescent labeling of peptide substrates, followed by adding a finishing solution to complete the reaction. The fluorescence level was measured using a Molecular Device with an excitation filter at 400 nm, and an emission filter at 520 nm. The kinase inhibitory activities of the compounds were calculated in phosphorylation rates between 0˜100% against the control group (staurosporine or each of kinase inhibitor) with reference to the protocol of the kit, and percentage inhibition was calculated and plotted against concentration (x-axis) to calculate 50% inhibitory concentration (IC50). The IC50 values were obtained by using Microsoft Excel, and the results are shown in Table 5, wherein A: IC50≦50 nM, B: IC50=50˜100 nM, C: IC50=100˜1,000 nM, and D: IC50≧1,000 nM.

[2] = target: T2, JAK3 (Homo sapiens, UniProt P52333); assay: JAK3 inhibitory activity, Z-Lyte Kinase Assay Kit; type: biochemical; settings: 60 minutes at room temperature, JAK3 enzyme (Invitrogen PV3855)
T2 construct: purchased Invitrogen PV3855
Procedure: as §1, §2, §3

T1 sequence (Q06187 whole entry): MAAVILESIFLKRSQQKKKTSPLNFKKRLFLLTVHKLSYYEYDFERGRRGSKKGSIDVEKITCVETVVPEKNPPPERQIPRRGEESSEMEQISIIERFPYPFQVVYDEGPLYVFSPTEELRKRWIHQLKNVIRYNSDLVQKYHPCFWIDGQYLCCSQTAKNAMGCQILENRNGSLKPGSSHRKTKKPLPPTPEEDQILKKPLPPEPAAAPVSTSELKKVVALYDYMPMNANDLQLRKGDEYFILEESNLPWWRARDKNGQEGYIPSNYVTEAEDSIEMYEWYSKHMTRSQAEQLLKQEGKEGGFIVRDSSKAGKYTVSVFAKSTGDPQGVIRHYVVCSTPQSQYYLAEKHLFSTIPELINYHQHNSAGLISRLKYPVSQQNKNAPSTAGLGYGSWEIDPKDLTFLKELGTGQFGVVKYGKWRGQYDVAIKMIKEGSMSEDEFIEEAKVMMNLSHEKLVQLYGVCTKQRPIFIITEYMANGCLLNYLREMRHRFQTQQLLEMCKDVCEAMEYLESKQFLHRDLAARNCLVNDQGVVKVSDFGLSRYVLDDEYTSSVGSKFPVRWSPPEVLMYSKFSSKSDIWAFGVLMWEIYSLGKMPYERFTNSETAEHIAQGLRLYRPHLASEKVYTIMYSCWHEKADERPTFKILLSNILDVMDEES
T2 sequence (P52333 781-1124 limits assumed): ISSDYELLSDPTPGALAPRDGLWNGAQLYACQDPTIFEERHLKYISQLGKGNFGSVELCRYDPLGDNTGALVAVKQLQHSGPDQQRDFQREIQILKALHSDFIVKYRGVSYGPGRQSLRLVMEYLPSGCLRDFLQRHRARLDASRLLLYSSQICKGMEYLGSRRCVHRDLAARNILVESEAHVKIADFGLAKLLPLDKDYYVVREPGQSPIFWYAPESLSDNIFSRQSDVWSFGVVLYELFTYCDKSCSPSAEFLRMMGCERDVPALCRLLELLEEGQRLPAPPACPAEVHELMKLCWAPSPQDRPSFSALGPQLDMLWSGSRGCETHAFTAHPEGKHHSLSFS

Row | IC50 [1] [nM] | IC50 [2] [nM] | Compound
1 | ≤ 50 | ≤ 50 | C=CC(=O)Nc1cccc(Oc2c(Cl)cnc3[nH]c(-c4ccc(CN5CCCC5)cc4)nc23)c1 [Example 14, N-(3-(6-chloro-2-(4-(pyrroldin-1-ylmethyl)phenyl)-3H-imidazo[4,5-b]pyridin-7-yloxy)phenyl)acrylamide]
2 | 50 to 100 | ≤ 50 | C=CC(=O)Nc1cccc(Oc2c(Cl)cnc3[nH]c(-c4ccc(CN5CCOCC5)cc4)nc23)c1 [Example 16, N-(3-(6-chloro-2-(4-(morpholinomethyl)phenyl)-3H-imidazo[4,5-b]pyridin-7-yloxy)phenyl)acrylamide]
3 | 100 to 1000 | 100 to 1000 | C=CC(=O)Nc1cccc(Oc2ccnc3[nH]c(-c4ccc(N5CCN(C)CC5)cc4)nc23)c1 [Example 20, N-(3-(2-(4-(4-methylpiperazin-1-yl)phenyl)-3H-imidazo[4,5-b]pyridin-7-yloxy)phenyl)acrylamide]
4 | ≤ 50 | ≤ 50 | C=CC(=O)Nc1cccc(Oc2c(Cl)cnc3[nH]c(-c4ccc(CN(C)CC)cc4)nc23)c1 [Example 12, N-(3-(6-chloro-2-(4-((ethyl(methyl)amino)methyl)phenyl)-3H-imidazo[4,5-b]pyridin-7-yloxy)phenyl)acrylamide]
5 | ≤ 50 | ≤ 50 | C=CC(=O)Nc1cccc(Oc2c(Cl)cnc3[nH]c(-c4ccc(CN5CCCCC5)cc4)nc23)c1 [Example 15, N-(3-(6-chloro-2-(4-(piperidin-1-ylmethyl)phenyl)-3H-imidazo[4,5-b]pyridin-7-yloxy)phenyl)acrylamide]
6 | 100 to 1000 | – | C=CC(=O)Nc1cccc(Oc2c(Cl)cnc3[nH]c(-c4ccc(OC)cc4)nc23)c1 [Example 18, N-(3-(6-chloro-2-(4-methoxyphenyl)-3H-imidazo[4,5-b]pyridin-7-yloxy)phenyl)acrylamide]
7 | 50 to 100 | – | C=CC(=O)Nc1cccc(Oc2c(Cl)cnc3[nH]c(-c4ccc(C(=O)NC5CCN(C)CC5)cc4)nc23)c1 [Example 10, 4-(7-(3-acrylamidophenoxy)-6-chloro-3H-imidazo[4,5-b]pyridin-2-yl)-N-(1-methylpiperidin-4-yl)benzamide]
8 | ≤ 50 | ≤ 50 | C=CC(=O)Nc1cccc(Oc2c(Cl)cnc3[nH]c(-c4ccc(CN(CC)CC)cc4)nc23)c1 [Example 13, N-(3-(6-chloro-2-(4-((diethylamino)methyl)phenyl)-3H-imidazo[4,5-b]pyridin-7-yloxy)phenyl)acrylamide]
9 | ≤ 50 | ≤ 50 | C=CC(=O)Nc1cccc(Oc2c(Cl)cnc3[nH]c(-c4ccc(CN(C)C)cc4)nc23)c1 [Example 11, N-(3-(6-chloro-2-(4-((dimethylamino)methyl)phenyl)-3H-imidazo[4,5-b]pyridin-7-yloxy)phenyl)acrylamide]
10 | 100 to 1000 | ≤ 50 | C=CC(=O)Nc1cccc(Oc2c(Cl)cnc3[nH]c(-c4ccncc4)nc23)c1 [Example 19, N-(3-(6-chloro-2-(pyridin-4-yl)-3H-imidazo[4,5-b]pyridin-7-yloxy)phenyl)acrylamide]
11 | 50 to 100 | ≤ 50 | C=CC(=O)Nc1cccc(Oc2c(Cl)cnc3[nH]c(-c4ccc(CN5CCN(C)CC5)cc4)nc23)c1 [Example 17, N-(3-(6-chloro-2-(4-((4-methylpiperazin-1-yl)methyl)phenyl)-3H-imidazo[4,5-b]pyridin-7-yloxy)phenyl)acrylamide]
12 | 100 to 1000 | – | C=CC(=O)Nc1cccc(Oc2c(Cl)cnc3[nH]c(-c4ccc(C(=O)O)cc4)nc23)c1 [Example 9, 4-(7-(3-acrylamidophenoxy)-6-chloro-3H-imidazo[4,5-b]pyridin-2-yl)-benzoic acid]

The next lines start with the molecule.

Row | Compound | IC50 [1] [nM] | IC50 [2] [nM]
13 | C=CC(=O)Nc1cccc(Oc2c(Cl)cnc3[nH]c(-c4ccc(C(=O)N5CCN(C)CC5)cc4)nc23)c1 [Example 3, N-(3-(6-chloro-2-(4-(4-methylpiperazin-1-carbonyl)phenyl)-3H-imidazo[4,5-b]pyridin-7-yloxy)phenyl)acrylamide] | ≤ 50 | 100 to 1000
14 | C=CC(=O)Nc1cccc(Oc2c(Cl)cnc3[nH]c(-c4ccc(C(=O)N(C)C)cc4)nc23)c1 [Example 8, 4-(7-(3-acrylamidophenoxy)-6-chloro-3H-imidazo[4,5-b]pyridin-2-yl)-N,N-dimethylbenzamide] | ≤ 50 | 50 to 100
15 | C=CC(=O)Nc1cccc(Oc2c(Cl)cnc3[nH]c(-c4ccc(NC5CCN(C)CC5)cc4)nc23)c1 [Example 5, N-(3-(6-chloro-2-(4-(1-methylpiperidin-4-ylamino)phenyl)-3H-imidazo[4,5-b]pyridin-7-yloxy)phenyl)acrylamide] | ≤ 50 | ≤ 50
16 | C=CC(=O)Nc1cccc(Oc2c(Cl)cnc3[nH]c(-c4ccc(N(C)C)cc4)nc23)c1 [Example 6, N-(3-(6-chloro-2-(4-(dimethylamino)phenyl)-3H-imidazo[4,5-b]pyridin-7-yloxy)phenyl)acrylamide] | 100 to 1000 | –
17 | C=CC(=O)Nc1cccc(Oc2c(Cl)cnc3[nH]c(-c4ccc(N5CCC(O)CC5)cc4)nc23)c1 [Example 2, N-(3-(6-chloro-2-(4-(4-hydroxypiperidin-1-yl)phenyl)-3H-imidazo[4,5-b]pyridin-7-yloxy)phenyl)acrylamide] | 50 to 100 | 100 to 1000
18 | C=CC(=O)Nc1cccc(Oc2c(Cl)cnc3[nH]c(-c4ccc([S+](C)[O-])cc4)nc23)c1 (stereo not shown) [Example 7, N-(3-(6-chloro-2-(4-(methylsulphinyl)phenyl)-3H-imidazo[4,5-b]pyridin-7-yloxy)phenyl)acrylamide] | ≤ 50 | –
19 | C=CC(=O)Nc1cccc(Oc2c(Cl)cnc3[nH]c(-c4ccc(N5CCN(C)CC5)cc4)nc23)c1 [Example 1, N-(3-(6-chloro-2-(4-(4-methylpiperazin-1-yl)phenyl)-3H-imidazo[4,5-b]pyridin-7-yloxy)phenyl)acrylamide] | ≤ 50 | 50 to 100
20 | C=CC(=O)Nc1cccc(Oc2c(Cl)cnc3[nH]c(-c4ccc(C(=O)N5CCOCC5)cc4)nc23)c1 [Example 4, N-(3-(6-chloro-2-(4-(morpholin-4-carbonyl)phenyl)-3H-imidazo[4,5-b]pyridin-7-yloxy)phenyl)acrylamide] | ≤ 50 | –

— patent US20150299185A1, “NOVEL IMIDAZOPYRIDINE DERIVATIVES AS A TYROSINE KINASE INHIBITOR” (HANMI PHARM. CO., LTD., priority 2011, published 2015)
